# In patent US20220117938A1, “COMBINATON THERAPY WITH A DON PRODRUG AND AN IMMUNE CHECKPOINT INHIBITOR” (DRACEN PHARMACEUTICALS, INC., priority 2019, published 2022):
# How the values were obtained:
# [1] = system: HCT116 tumors; test: Anti-tumor efficacy of Compound 1 in the HCT116 xenograft model (Example 12); assay type: in vivo, mice
# Method: Female BALB/c nude mice were inoculated subcutaneously in the right flank with HCT116 cells for tumor development. Nine days after tumor inoculation, mice with tumor sizes ranging from 90-260 mm^3 (average tumor size 155 mm^3) were selected and assigned into groups using stratified randomization with 8 mice per group based upon their tumor volumes. The treatments were started from the day of randomization (defined as D0), Group 1 was treated with Vehicle control, 10 ml/kg, IP, bid×21; Group 4 was treated with Compound 1, 1.4 mg/kg, SC, 5d ON, 2 d OFF×3 cycles; and Group 5 was treated with Compound 1, 3.3 mg/kg, IV, tiw, (Thu, Sat, Mon)×3 cycles. The tumor sizes were measured two times per week during the treatment. The entire study was terminated on D18 after start of the treatment. All treatments were well-tolerated without any adverse effects or significant body weight loss.
# [2] = system: CT26.WT tumors; test: Anti-tumor efficacy of Compound 1 with and without anti-PD-1 in the CT26.WT murine colorectal model (Example 2B); assay type: in vivo, Mus musculus; settings: for Tumor volume (mm^3), Mean ± SEM: n = 8; for ILS (%) / MST: endpoint tumor volume 2000 mm^3; for RTV at day 15 / T/C (%) / TGI (%) / Tumor Size (mm^3) at day 15, Mean ± SEM: day 15
# Method: Female BALB/c mice were inoculated subcutaneously at right flank with CT26.WT cells for tumor development. Five days after tumor inoculation, 48 mice with tumor size ranging from 39-61 mm^3 (average tumor size 49 mm^3) were selected and assigned into 6 groups using stratified randomization with 8 mice per group based upon their tumor volumes. The treatments were started from the day of randomization (defined as D0), Group 1 was treated with Vehicle (Tween 80:Ethanol:Saline—5:5:90 v/v/v), s.c. q.d.×14, Group 2 was treated with anti-PD-1 10 mg/kg i.p. q4d×4, Group 3 was treated with Compound 1 3 mg/kg s.c. q.d.×5D followed by 1 mg/kg s.c. q.d.×9D, Group 4 was treated with Compound 1 3 mg/kg s.c. q.d.×5D followed by 1 mg/kg s.c. q.d.×9D+anti-PD-1 10 mg/kg i.p. q4d×4, Group 5 was treated with Compound 1 1 mg/kg s.c. q.d.×14D and Group 6 was treated with Compound 1 1 mg/kg s.c. q.d.×14D+anti-PD-1 10 mg/kg i.p. q4d×4. The tumor sizes were measured three times per week during the treatment. The entire study was terminated on D64 after start of the treatment.
# Animal Species: Mus musculus; Strain: BALB/c; Age: 6-8 weeks; Sex: female; Body weight (at treatment start): 20-24 g.
# The CT26.WT tumor cells (ATCC, Cat #CRL-2638™) were maintained in vitro as a monolayer culture in RPMI 1640 medium supplemented with 10% heat inactivated fetal bovine serum, 100 U/mL penicillin and 100 μg/mL streptomycin, and L-glutamine (2 mM) at 37° C. in an atmosphere of 5% CO2 in air. The tumor cells were routinely subcultured twice weekly by trypsin-EDTA treatment. The cells growing to a confluency around 70%-80% were harvested and counted for tumor inoculation. The cultured CT26.WT cells were harvested, re-suspended in base medium with viability>90%. Each mouse was inoculated subcutaneously at the right flank with 3×10^5 in 0.05 ml base medium for tumor development.
# The treatments were started on day 5 after tumor inoculation when the tumor size reached 39-61 mm^3 (average tumor size 49 mm^3). Each group consisted of 8 tumor bearing mice. The testing article was administrated at the dosing volume indicated to the mice according to the predetermined regimen as shown Table 2B-1. Testing article formulations were prepared according to standard procedures. Details regarding tumor measurements and endpoints, and statistical analysis are provided in EXAMPLE 3.
# Tumor sizes were measured three times a week in two dimensions using a caliper, and the volume expressed in mm^3 using the formula: V=0.5 a×b^2 where a and b are the long and short diameters of the tumor, respectively. The tumor sizes were then used for the calculations of both tumor growth inhibition (TGI) and T/C values.
# TGI is calculated for each group using the formula: […]
# TVTreatment_DayN is the average tumor volume of a treatment group on a given day, TVTreatment_Day0 is the average tumor volume of the treatment group on the first day of treatment, TVVehicle_DayN is the average tumor volume of the vehicle control group on a given day, and TVVehicle_Day0 is the average tumor volume of the vehicle group on the first day of treatment.
# The T/C value (in percent) is an indication of antitumor effectiveness, T/C (%)=RTVTreatment/RTVControl×100% (RTVTreatment: the mean RTV of the treatment group; RTVControl: the mean RTV of the vehicle treated group). RTV (relative tumor volume)=TVDayN/TVDay0. TVDayN and TVDay0 is the tumor volume on day N and Day 0 respectively. T/C (%)≤42% is considered as significant antitumor activity and <10% is considered as highly significant antitumor activity by the National Cancer Institute criteria.
# Animal survival curve: When an individual animal reached to the termination endpoint (TV>2000 mm^3), the mouse was euthanized. The time from treatment initiation to the termination was deemed as its survival time. Survival curve was plotted by Kaplan-Meier method. Median survival time (MST) was calculated for each group. Increase of life span (ILS) was calculated according to the following formula: […]
# [3] = Group 4, 1.4 mg/kg SC 5 d ON 2 d OFF x3 cycles
# [4] = Group 4, 1.4 mg/kg SC 5 d ON 2 d OFF x3 cycles, day 11
# [5] = Group 5, 3.3 mg/kg IV tiw x3 cycles
# [6] = Group 5, 3.3 mg/kg IV tiw x3 cycles, day 11
smiles,measurement,setting,value
"CC(=O)N[C@@H](Cc1c[nH]c2ccccc12)C(=O)N[C@@H](CCC(=O)C=[N+]=[N-])C(=O)OC(C)C [Compound 1, Isopropyl (S)-2-((S)-2-acetamido-3-(1H-indol-3-yl)propanamido)-6-diazo-5-oxohexanoate]",RTV at day 11,[1]; [3],4.061 ± 0.33
same,Tumor Size at day 11,[1]; [3],602 ± 72 mm^3
same,Tumor volume,"[1]; Group 4, 1.4 mg/kg SC 5 d ON 2 d OFF x3 cycles, day 0",155 ± 19 mm^3
same,Tumor volume,"[1]; Group 4, 1.4 mg/kg SC 5 d ON 2 d OFF x3 cycles, day 4",227 ± 39 mm^3
same,Tumor volume,"[1]; Group 4, 1.4 mg/kg SC 5 d ON 2 d OFF x3 cycles, day 7",294 ± 53 mm^3
same,T/C,[1]; [4],52.25%
same,TGI,[1]; [4],53.92%
same,Tumor volume,[1]; [4],602 ± 72 mm^3
same,Tumor volume,"[1]; Group 4, 1.4 mg/kg SC 5 d ON 2 d OFF x3 cycles, day 14",964 ± 176 mm^3
same,RTV at day 11,[1]; [5],3.70 ± 0.45
same,Tumor Size at day 11,[1]; [5],571 ± 82 mm^3
same,Tumor volume,"[1]; Group 5, 3.3 mg/kg IV tiw x3 cycles, day 0",156 ± 19 mm^3
same,Tumor volume,"[1]; Group 5, 3.3 mg/kg IV tiw x3 cycles, day 4",188 ± 23 mm^3
same,Tumor volume,"[1]; Group 5, 3.3 mg/kg IV tiw x3 cycles, day 7",378 ± 60 mm^3
same,T/C,[1]; [6],48.17%
same,TGI,[1]; [6],57.23%
same,Tumor volume,[1]; [6],571 ± 82 mm^3
same,Tumor volume,"[1]; Group 5, 3.3 mg/kg IV tiw x3 cycles, day 14",861 ± 134 mm^3
same,Tumor volume,"[1]; Group 5, 3.3 mg/kg IV tiw x3 cycles, day 18",1354 ± 204 mm^3
same,"Tumor volume (mm^3), Mean ± SEM","[2]; 1 mg/kg qdx14 s.c., Day 0",49 ± 2 mm^3
same,"Tumor volume (mm^3), Mean ± SEM","[2]; 1 mg/kg qdx14 s.c., Day 3",68 ± 6 mm^3
same,"Tumor volume (mm^3), Mean ± SEM","[2]; 1 mg/kg qdx14 s.c., Day 6",92 ± 8 mm^3
same,"Tumor volume (mm^3), Mean ± SEM","[2]; 1 mg/kg qdx14 s.c., Day 8",104 ± 9 mm^3
same,"Tumor volume (mm^3), Mean ± SEM","[2]; 1 mg/kg qdx14 s.c., Day 10",112 ± 9 mm^3
same,"Tumor volume (mm^3), Mean ± SEM","[2]; 1 mg/kg qdx14 s.c., Day 13",156 ± 18 mm^3
same,"Tumor volume (mm^3), Mean ± SEM","[2]; 1 mg/kg qdx14 s.c., Day 15",186 ± 21 mm^3
same,"Tumor volume (mm^3), Mean ± SEM","[2]; 3 mg/kg qdx5 then 1 mg/kg qdx9 s.c., Day 0",49 ± 2 mm^3
same,"Tumor volume (mm^3), Mean ± SEM","[2]; 3 mg/kg qdx5 then 1 mg/kg qdx9 s.c., Day 3",54 ± 2 mm^3
same,"Tumor volume (mm^3), Mean ± SEM","[2]; 3 mg/kg qdx5 then 1 mg/kg qdx9 s.c., Day 6",65 ± 3 mm^3
same,"Tumor volume (mm^3), Mean ± SEM","[2]; 3 mg/kg qdx5 then 1 mg/kg qdx9 s.c., Day 8",139 ± 14 mm^3
same,"Tumor volume (mm^3), Mean ± SEM","[2]; 3 mg/kg qdx5 then 1 mg/kg qdx9 s.c., Day 10",180 ± 20 mm^3
same,"Tumor volume (mm^3), Mean ± SEM","[2]; 3 mg/kg qdx5 then 1 mg/kg qdx9 s.c., Day 13",224 ± 25 mm^3
same,"Tumor volume (mm^3), Mean ± SEM","[2]; 3 mg/kg qdx5 then 1 mg/kg qdx9 s.c., Day 15",333 ± 41 mm^3
same,ILS (%),[2]; Compound 1 1 mg/kg,40%
same,MST,[2]; Compound 1 1 mg/kg,28 days
same,ILS (%),[2]; Compound 1 3/1 mg/kg,35%
same,MST,[2]; Compound 1 3/1 mg/kg,27 days
same,RTV at day 15,[2]; Cpd. 1 1 mg/kg,3.84 ± 0.43
same,T/C (%),[2]; Cpd. 1 1 mg/kg,15.23%
same,TGI (%),[2]; Cpd. 1 1 mg/kg,188.18%
same,"Tumor Size (mm^3) at day 15, Mean ± SEM",[2]; Cpd. 1 1 mg/kg,186 ± 21 mm^3
same,RTV at day 15,[2]; Cpd. 1 3/1 mg/kg,4.79 ± 0.69
same,T/C (%),[2]; Cpd. 1 3/1 mg/kg,19.00%
same,TGI (%),[2]; Cpd. 1 3/1 mg/kg,84.90%
same,"Tumor Size (mm^3) at day 15, Mean ± SEM",[2]; Cpd. 1 3/1 mg/kg,224 ± 25 mm^3
